Data as given in ChEMBL document CHEMBL1135903 (J Med Chem, 2002).
Several values for one entry are separate records, joined by “and”; a condition that tells them apart may be missing. Equal entries are not always repeated.

How the values were obtained:
Carbonic anhydrase 1 = Carbonic anhydrase 1 (Homo sapiens, UniProt P00915)
Description: Inhibitory activity against Human carbonic anhydrase I

Carbonic anhydrase 4 = molecular target: T1, Carbonic anhydrase 4 (Bos taurus, UniProt Q95323)
T1 sequence (Q95323 whole entry): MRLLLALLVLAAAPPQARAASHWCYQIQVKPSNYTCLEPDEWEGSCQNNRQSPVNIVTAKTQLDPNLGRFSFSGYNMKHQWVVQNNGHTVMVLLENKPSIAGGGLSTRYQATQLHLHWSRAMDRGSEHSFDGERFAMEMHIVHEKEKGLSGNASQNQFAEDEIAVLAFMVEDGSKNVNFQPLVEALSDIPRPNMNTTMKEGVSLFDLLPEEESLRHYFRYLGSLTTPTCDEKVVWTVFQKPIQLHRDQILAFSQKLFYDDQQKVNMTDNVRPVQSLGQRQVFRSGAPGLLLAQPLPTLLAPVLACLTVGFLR
Description: Inhibitory activity against bovine carbonic anhydrase IV

Sequence of Carbonic anhydrase 1 (P00915 whole entry): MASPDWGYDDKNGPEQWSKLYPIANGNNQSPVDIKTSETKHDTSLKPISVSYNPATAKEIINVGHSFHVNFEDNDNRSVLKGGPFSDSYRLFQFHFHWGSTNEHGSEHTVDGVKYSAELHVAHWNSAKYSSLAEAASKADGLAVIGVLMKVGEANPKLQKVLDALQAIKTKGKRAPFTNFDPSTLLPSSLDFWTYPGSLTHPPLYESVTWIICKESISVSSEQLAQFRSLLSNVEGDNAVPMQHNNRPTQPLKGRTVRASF

SMILES | Ki (Carbonic anhydrase 1) [nM] | Ki (Carbonic anhydrase 4)
NS(=O)(=O)c1ccccc1NC(=O)CNCC(=O)O | 27000 | 1240 nM
NS(=O)(=O)c1ccc(NC(=O)CNCCNCC(=O)O)c(Br)c1 | 380 | 54 nM
NS(=O)(=O)c1ccc(NC(=O)CN(CCN(CC(=O)O)CC(=O)O)CC(=O)O)c(F)c1 | 360 | 40 nM
NS(=O)(=O)c1ccc(CNC(=O)CN(CCOCCOCCN(CC(=O)O)CC(=O)O)CC(=O)O)cc1 | 610 | 48 nM
NS(=O)(=O)c1cccc(NC(=O)CN(CCOCCOCCN(CC(=O)O)CC(=O)O)CC(=O)O)c1 | 7450 | 500 nM
NS(=O)(=O)c1ccc(NNC(=O)CN(CCN(CC(=O)O)CC(=O)NNc2ccc(S(N)(=O)=O)cc2)CC(=O)O)cc1 | 12500 | 510 nM
NS(=O)(=O)c1ccccc1NC(=O)CN(CCN(CC(=O)O)c1ccccc1O)c1ccccc1O | 12500 | 800 nM
NS(=O)(=O)c1ccc(NNC(=O)CN(CCOCCOCCN(CC(=O)O)CC(=O)O)CC(=O)O)cc1 | 12500 | 620 nM
NS(=O)(=O)c1nnc(NC(=O)CN(CC(=O)O)CC(=O)O)s1 | 410 | 240 nM
NS(=O)(=O)c1ccc(NC(=O)CN(CC(=O)O)CC(=O)O)cc1 | 20600 | 450 nM
NS(=O)(=O)c1ccc(NC(=O)CNCCNCC(=O)O)cc1 | 12000 | 365 nM
NS(=O)(=O)c1ccc(NC(=O)CN(CCOCCOCCN(CC(=O)O)CC(=O)Nc2ccc(S(N)(=O)=O)cc2)CC(=O)O)cc1 | 3800 | 150 nM
NS(=O)(=O)c1ccc(NC(=O)CN(CC(=O)O)CC(=O)O)c(Br)c1 | 620 | 53 nM
NS(=O)(=O)c1ccc(CNC(=O)CN(CCN(CC(=O)O)c2ccccc2O)c2ccccc2O)cc1 | 1200 | 135 nM
NS(=O)(=O)c1nnc(NC(=O)CNCCNCC(=O)O)s1 | 250 | 130 nM
NS(=O)(=O)c1ccc(NNC(=O)CNCC(=O)O)cc1 | 32700 | 980 nM
NS(=O)(=O)c1ccc(COC(=O)CN(CCN(CC(=O)O)CC(=O)OCc2ccc(S(N)(=O)=O)cc2)CC(=O)O)cc1 | 460 | 200 nM
NS(=O)(=O)c1ccc(COC(=O)CNCCNCC(=O)O)cc1 | 1020 | 350 nM
NS(=O)(=O)c1ccccc1NC(=O)CN(CCOCCOCCN(CC(=O)O)CC(=O)O)CC(=O)O | 8900 | 545 nM
NS(=O)(=O)c1ccc(CCOC(=O)CN(CCOCCOCCN(CC(=O)O)CC(=O)OCCc2ccc(S(N)(=O)=O)cc2)CC(=O)O)cc1 | 300 | 96 nM
NS(=O)(=O)c1ccccc1NC(=O)CN(CCN(CC(=O)O)CC(=O)Nc1ccccc1S(N)(=O)=O)CC(=O)O | 8100 | 650 nM
NS(=O)(=O)c1ccc(NC(=O)CN(CC(=O)O)CC(=O)O)c(Cl)c1 | 960 | 150 nM

SMILES | Ki (Carbonic anhydrase 1) [nM] | Ki (Carbonic anhydrase 4)
NS(=O)(=O)c1cc(S(N)(=O)=O)c(NC(=O)CNCCNCC(=O)O)cc1Cl | 250 | 135 nM
NS(=O)(=O)c1ccc(CNC(=O)CN(CC(=O)O)CC(=O)O)cc1 | 3500 | 256 nM
NS(=O)(=O)c1cccc(NC(=O)CN(CCN(CC(=O)O)c2ccccc2O)c2ccccc2O)c1 | 10000 | 860 nM
NS(=O)(=O)c1ccc(NC(=O)CN(CCN(CC(=O)O)c2ccccc2O)c2ccccc2O)c(Cl)c1 | 870 | 108 nM
NS(=O)(=O)c1ccc(NC(=O)CN(CCN(CC(=O)O)CC(=O)O)CC(=O)O)cc1 | 6300 | 330 nM
NS(=O)(=O)c1nnc(NC(=O)CNCC(=O)O)s1 | 415 | 265 nM
Cn1nc(S(N)(=O)=O)s/c1=N/C(=O)CN(CC(=O)O)CC(=O)O | 520 | 106 nM
NS(=O)(=O)c1ccc(CCOC(=O)CN(CCOCCOCCN(CC(=O)O)CC(=O)O)CC(=O)O)cc1 | 430 | 155 nM
NS(=O)(=O)c1ccc(NC(=O)CN(CC(=O)O)CC(=O)O)c(F)c1 | 1000 | 136 nM
NS(=O)(=O)c1ccc(COC(=O)CN(CCOCCOCCN(CC(=O)O)CC(=O)OCc2ccc(S(N)(=O)=O)cc2)CC(=O)O)cc1 | 335 | 150 nM
NS(=O)(=O)c1ccc(NC(=O)CNCC(=O)O)c(Cl)c1 | 975 | 165 nM
NS(=O)(=O)c1cc(S(N)(=O)=O)c(NC(=O)CN(CC(=O)O)CC(=O)O)c(Cl)c1Cl | 345 | 100 nM
NS(=O)(=O)c1ccc(NNC(=O)CN(CC(=O)O)CC(=O)O)cc1 | 30500 | 930 nM
NS(=O)(=O)c1ccc(CCOC(=O)CN(CCN(CC(=O)O)CC(=O)O)CC(=O)O)cc1 | 640 | 310 nM
NS(=O)(=O)c1ccc(CCNC(=O)CNCCNCC(=O)O)cc1 | 1540 | 250 nM
NS(=O)(=O)c1ccc(NC(=O)CN(CC(=O)O)CC(=O)O)c(I)c1 | 510 | 110 nM
NS(=O)(=O)c1ccc(NC(=O)CNCC(=O)O)c(Br)c1 | 610 | 57 nM
NS(=O)(=O)c1ccc(CCOC(=O)CNCC(=O)O)cc1 | 1200 | 340 nM
NS(=O)(=O)c1cccc(NC(=O)CN(CC(=O)O)CC(=O)O)c1 | 23000 | 1520 nM
NS(=O)(=O)c1ccc(CNC(=O)CNCCNCC(=O)O)cc1 | 1760 | 245 nM
NS(=O)(=O)c1ccc(NC(=O)CNCCNCC(=O)O)c(I)c1 | 430 | 115 nM

The remaining compounds from weak to strong by Ki (Carbonic anhydrase 1), led by results:

Ki (Carbonic anhydrase 1) [nM] | Ki (Carbonic anhydrase 4) | SMILES
245 | 105 nM | NS(=O)(=O)c1nnc(NC(=O)CN(CCN(CC(=O)O)c2ccccc2O)c2ccccc2O)s1
230 | 30 nM | NS(=O)(=O)c1ccc(NC(=O)CN(CCOCCOCCN(CC(=O)O)CC(=O)O)CC(=O)O)c(Cl)c1
225 | 50 nM | NS(=O)(=O)c1ccc(NC(=O)CN(CCN(CC(=O)O)CC(=O)Nc2ccc(S(N)(=O)=O)cc2Cl)CC(=O)O)c(Cl)c1
225 | 37 nM | NS(=O)(=O)c1nnc(NC(=O)CN(CCN(CC(=O)O)CC(=O)O)CC(=O)O)s1
220 | 90 nM | NS(=O)(=O)c1ccc(NC(=O)CN(CCN(CC(=O)O)c2ccccc2O)c2ccccc2O)c(I)c1
210 | 31 nM | NS(=O)(=O)c1ccc(NC(=O)CN(CCOCCOCCN(CC(=O)O)CC(=O)O)CC(=O)O)c(F)c1
200 | 23 nM | NS(=O)(=O)c1nnc(NC(=O)CCNC(=O)CN(CCN(CC(=O)O)CC(=O)O)CC(=O)O)s1
150 | 22 nM | NS(=O)(=O)c1ccc(NC(=O)CN(CCOCCOCCN(CC(=O)O)CC(=O)Nc2ccc(S(N)(=O)=O)cc2Cl)CC(=O)O)c(Cl)c1
93 | 65 nM | NS(=O)(=O)c1cc(S(N)(=O)=O)c(NC(=O)CN(CCOCCOCCN(CC(=O)O)CC(=O)O)CC(=O)O)cc1Cl
89 | 45 nM | NS(=O)(=O)c1ccc(NC(=O)CN(CCN(CC(=O)O)CC(=O)Nc2ccc(S(N)(=O)=O)cc2I)CC(=O)O)c(I)c1
85 | 25 nM | NS(=O)(=O)c1ccc(NC(=O)CN(CCOCCOCCN(CC(=O)O)CC(=O)Nc2ccc(S(N)(=O)=O)cc2Br)CC(=O)O)c(Br)c1
76 | 6 nM | NS(=O)(=O)c1nnc(NC(=O)CCNC(=O)CN(CCOCCOCCN(CC(=O)O)CC(=O)NCCC(=O)Nc2nnc(S(N)(=O)=O)s2)CC(=O)O)s1
72 | 69 nM | NS(=O)(=O)c1cc(S(N)(=O)=O)c(NC(=O)CN(CCN(CC(=O)O)CC(=O)Nc2cc(Cl)c(S(N)(=O)=O)cc2S(N)(=O)=O)CC(=O)O)cc1Cl
66 | 16 nM | Cn1nc(S(N)(=O)=O)s/c1=N/C(=O)CN(CCOCCOCCN(CC(=O)O)CC(=O)O)CC(=O)O
62 | 13 nM | NS(=O)(=O)c1nc2ccc(NC(=O)CN(CC(=O)O)CC(=O)O)cc2s1
56 | 12 nM | NS(=O)(=O)c1nc2ccc(NC(=O)CNCCNCC(=O)O)cc2s1
54 | 9 nM | Cn1nc(S(N)(=O)=O)s/c1=N/C(=O)CN(CCN(CCN(CC(=O)O)CC(=O)/N=c1/sc(S(N)(=O)=O)nn1C)CC(=O)O)CC(=O)O
48 | 11 nM | NS(=O)(=O)c1nc2ccc(NC(=O)CN(CCN(CC(=O)O)CC(=O)O)CC(=O)O)cc2s1
47 | 12 nM | NS(=O)(=O)c1nc2ccc(OC(=O)CN(CCN(CC(=O)O)c3ccccc3O)c3ccccc3O)cc2s1
43 | 9 nM | NS(=O)(=O)c1nc2ccc(OCCOC(=O)CNCCNCC(=O)O)cc2s1
43 | 10 nM | NS(=O)(=O)c1nc2ccc(OC(=O)CN(CCN(CC(=O)O)CC(=O)O)CC(=O)O)cc2s1
39 | 7 nM | NS(=O)(=O)c1nc2ccc(NC(=O)CN(CCOCCOCCN(CC(=O)O)CC(=O)O)CC(=O)O)cc2s1
39 | 8 nM | NS(=O)(=O)c1nc2ccc(OCCOC(=O)CN(CCN(CC(=O)O)CC(=O)O)CC(=O)O)cc2s1
32 | 7 nM | Cn1nc(S(N)(=O)=O)s/c1=N/C(=O)CN(CCOCCOCCN(CC(=O)O)CC(=O)/N=c1/sc(S(N)(=O)=O)nn1C)CC(=O)O
25 | 6 nM | NS(=O)(=O)c1nc2ccc(OCCOC(=O)CN(CCN(CC(=O)O)CC(=O)OCCOc3ccc4nc(S(N)(=O)=O)sc4c3)CC(=O)O)cc2s1
23 | 4 nM | NS(=O)(=O)c1nc2ccc(NC(=O)CN(CCOCCOCCN(CC(=O)O)CC(=O)Nc3ccc4nc(S(N)(=O)=O)sc4c3)CC(=O)O)cc2s1
16 | 4 nM and 5 nM | NS(=O)(=O)c1nc2ccc(OC(=O)CN(CCN(CCN(CC(=O)O)CC(=O)Oc3ccc4nc(S(N)(=O)=O)sc4c3)CC(=O)O)CC(=O)O)cc2s1
